Experimental data taken from US9522908B2, “Ezrin inhibitors and methods of making and using” (Georgetown University, priority 2010, dated 2016).

Experiments:
[1] = tested on: zebrafish embryos; assay: Zebrafish embryo development assay; format: in vivo, Zebrafish (Danio rerio)
Description: Animals. Zebrafish (Danio rerio) were raised, maintained and crossed as described before (Westerfield, M. University of Oregon Press, Eugene. Or., 1993). Development of embryos was studied at 28° C. and staging was determined by morphological characteristics (Kimmel, C. B., et al., Dev. Dyn. 203, 253-310 (1995)).
A translation blocking anti-ezrin morpholino oligonucleotide (MO), described and validated by Link et al. (Link, V., et al., J. Cell Sci., 119, 2073-2083 (2006)), MO1, 5′-[…] (SEQ ID NO:1), was synthesized by Gene-Tools, LCC (Philomath, Oreg.). MOs were microinjected into one to four cell stage embryos.
Zebrafish embryos were arrayed, three per well, in 96-well plates. Compounds were added at 1-33 μM concentrations. Embryos were observed, and photographed, at 70% epiboly, 24-28 hours post fertilization (hpf) and 48 hpf.

[2] = molecular target: T1, ezrin T567 phosphorylation by PKC,τ (Mus musculus, UniProt P26040); assay: In vitro kinase assay: recombinant ezrin T567 phosphorylation by PKC,τ; format: biochemical; conditions: phosphospecific antibody immunoblot densitometry
T1 construct: Recombinant full length ezrin was prepared to a concentration of 100 μg/ml; host or cells: E. coli M15pREP4 (ezrin)
Description: FIG. 2 illustrates NSC305787 and NSC668394 inhibit ezrin T567 phosphorylation. (A) K7M2 metastatic OS cell line was treated with NSC305787 (10 μM) and NSC668394 (10 μM) for 6 hours. […] The effect of NSC305787 and NSC668394 on recombinant ezrin phosphorylation by recombinant PKC, was tested in an in vitro kinase assay. Phoshorylation of ezrin was detected by a phosphospecific antibody following PAGE and immunoblotting. Experiments were repeated three times and densitometric analysis of bands was used for calculation of % inhibition (graphs). Error bars represents s.d. from three independent experiments. Kinase activities of PKC,τ, PKC,α and PKC,γ were also evaluated with a nonspecific substrate in the presence of NSC305787 and NSC668394 by a radioactive in vitro kinase assay. Data analysis was done by using a sigmoidal dose-response equation where log EC50 for each curve with the ezrin substrate and the non-specific substrate were compared to each other (P=0.0118 for NSC305787 and P=0.0084 for NSC668394).
500 ng of recombinant ezrin protein in kinase assay mix (200 μM ATP) was incubated with the compounds at 1-100 μM concentrations for 15 minutes on ice, then 50 ng PKC,τ (Millipore, Billerica, Mass.) was added. Reaction was performed at 30° C. for 30 min and stopped by adding 2× sample buffer. […]

[3] = tested on: MNNG, human OS cells; assay: In vivo experimental lung metastasis model, ezrin independent MNNG cells; design: species or system mice
Description: FIG. 6 illustrates NSC305787 and NSC668394 inhibit in vivo OS metastatic growth in lungs. (A) K7M2 metastatic OS tumor cells (1×10^6) were injected via tail vein. Vehicle (1% DMSO), NSC305787 (240 μg/kg) and NSC668394 (226 μg/kg) were injected 5 days a week intraperitoneally. Kaplan-Meier survival curves show percent survival for NSC305787 and NSC668394 treatment over time. Median survival of vehicle, NSC305787 and NSC668394 treated K7M2 cells were 28.5, 50, and 49 days after tumor cell injection. […] (B) Fluorescence pictures of whole lungs are given. […] (C) GFP expressing ezrin independent MNNG, human OS cells were injected to mice and treated with vehicle (1% DMSO), NSC305787 (240 μg/kg) and NSC668394 (226 μg/kg). Survival of each group is not different probably because MNNG is an ezrin independent cell line. Median survival of vehicle, NSC305787 and NSC668394 treated MNNG cells were 50.5, 49, and 48.5 days after tumor cell injection. (D) Fluorescent images of the lung tissues of this group are given.
GFP expressing K7M2 or MNNG tumor cells (1×10^6) were delivered by tail vein to nude mice. One day after injection, vehicle, NSC305787 (240 μg/kg/inj) and […] (226 μg/kg/inj) were injected 5 days a week intraperitoneally.

[4] = molecular target: T2, recombinant WT ezrin protein (Mus musculus, UniProt P26040); assay: SPR direct binding to immobilized recombinant WT ezrin (Biacore); conditions: 5 independent experiments
T2 construct: full-length recombinant ezrin protein was expressed in bacteria; made in house; host or cells: E. coli M15pREP4 (pQE16 vector)
Description: FIG. 7 provides results illustrating the functional activity of select compounds of the present invention on ezrin protein. The chemical structure of the embodied compounds is detailed and the corresponding binding and viability values are listed. The binding potential of select compounds to ezrin was analyzed by using SPR. Recombinant WT ezrin was immobilized onto a Biacore CM5 sensorchip and compounds were injected one-at-a-time at 6 different concentrations. SPR sensograms and KD values were determined using Biacore software. […] The viability and growth inhibition activity of select compounds were determined by treatment of high ezrin expressed K7M2 and low ezrin expressed K12 osteosarcoma cells with a dose range of the select compound for 24 hours. […]
Compounds for initial screening were acquired from 4 libraries (Challenge Set, Diversity Set, Mechanistic Set and Natural Product Set) of the Developmental Therapeutics Program, National Cancer Institute. Their direct ezrin binding potential was analyzed by using Biacore T100 v2.0.3 instrument (GE Healthcare, Piscataway N.J.). […] Existing interactions are measured based on total mass change on the chip surface. Recombinant WT ezrin protein was used as the ligand and immobilized on to a Biacore CM5 sensorchip and compounds were injected one at a time as the binding interactions were recorded. […]

T1 sequence (P26040 whole entry): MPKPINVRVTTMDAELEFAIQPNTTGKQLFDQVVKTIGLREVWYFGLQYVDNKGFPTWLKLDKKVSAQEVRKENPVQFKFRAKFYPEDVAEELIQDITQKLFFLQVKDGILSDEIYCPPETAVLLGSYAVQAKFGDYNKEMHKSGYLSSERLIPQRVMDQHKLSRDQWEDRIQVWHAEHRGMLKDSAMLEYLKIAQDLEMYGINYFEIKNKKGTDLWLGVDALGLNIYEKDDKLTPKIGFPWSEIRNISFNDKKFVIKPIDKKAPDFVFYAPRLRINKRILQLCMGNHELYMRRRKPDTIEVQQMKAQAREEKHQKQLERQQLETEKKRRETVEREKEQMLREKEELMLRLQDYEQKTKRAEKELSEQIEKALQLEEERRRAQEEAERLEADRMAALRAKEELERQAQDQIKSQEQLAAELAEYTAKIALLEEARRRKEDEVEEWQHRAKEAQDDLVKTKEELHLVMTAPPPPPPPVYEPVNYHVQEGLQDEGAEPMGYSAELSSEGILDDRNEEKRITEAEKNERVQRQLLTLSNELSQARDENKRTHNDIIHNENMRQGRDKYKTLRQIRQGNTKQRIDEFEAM
T2 sequence (P26040 whole entry): as above

## OC(c1cc(C23CC4CC(CC(C4)C2)C3)nc2c(Cl)cc(Cl)cc12)C1CCCCN1 (stereo not drawn) [NSC305787]
[1]; 10 μM
  embryos with epiboly defects: 15%
[1]; 20 μM
  embryos with epiboly defects: 100%
[2]
  IC50: 5.5 µM
[3]; MNNG cells
  number of GFP expressing metastatic foci in lung tissues: not a significant difference
[3]; MNNG cells by tail vein, i.p. 5 days a week, vehicle 50.5 days
  median survival after tumor cell injection: 49 days
[4]
  Kd: 5.85 µM
